What is called pEC50 is the EC50 on a negative log10 scale, so that one unit is a factor of ten. The low end stands for a large EC50, the high end for a small EC50. In general, pIC50 refers to the IC50 on a negative log10 scale, so that one unit is a factor of ten. Higher therefore signals a small IC50.

Here are results for 21 compounds from patent US11427561B2, “IRAK4 inhibiting agents” (BIOGEN MA INC., priority 2016, dated 2022).

pEC50, pIC50: −log10 of the molar value. Counter-ions that a name gives are not always drawn.

For one assay, the system named is primary human microglia. The settings on record: cited from earlier work.
A further assay has as its system astrocytes and microglia. The conditions noted are these: cited from earlier work.
For another assay, the system named is primary human astrocytes. The settings on record: cited from earlier work.
For the next assay, the system named is A549 cells. Description: Cell-based assay: IL-6 ELISA quantification in A549 cells stimulated with human IL-1beta. The conditions noted are these: 2 ng/ml human IL-1beta overnight. The protocol:
Cell-based Assay: The cell-based assays is based on IL-6 ELISA quantification. Briefly, A549 cells are cultured in DMEM with 10% FBS medium. When cells reach 80% confluence they are trypsin treated and seeded 180 ul/well in 96-well plate at 2.5×10^4 cells/well. Then, 20 ul of compound serial dilutions (starting at 10 uM, 10 points) are added to the cell plate; incubate for 30 min at 37 C and stimulated with 2 ng/ml human IL-1beta 37 C, 5% CO2 overnight. The next day 100 ul of cell supernatant per well are analyzed on a Human IL-6 Quantikine ELISA kit from R&D Systems.
The compounds described herein were tested for in the above biochemical and cell-based assays.
(An ELISA detects its analyte on a solid surface through an enzyme-linked reagent.)

The target of another assay is IRAK4 (Homo sapiens (Human), UniProt Q9NWZ3). The experiment in a line: IRAK-4 biochemical assay, AlphaScreen format (phosphorylation of a biotin labeled peptide). The settings on record: 1 nM IRAK4, 1.6 μM peptide, 1 mM ATP, 3.5 h at RT. How it is done:
Biochemical Assay: The biochemical assay is in a AlphaScreen format. The kinase reaction is based on the IRAK-4 phosphorylation of a biotin labeled peptide. The phosphopeptide is incubated with anti-phosphothreonine antibody as well as streptavidin- and protein A-coated beads. Binding of the protein-A coated beads to the antibody and the streptavidin beads to the peptide, leads to an energy transfer from one bead to the other, ultimately producing a luminescent/fluorescent signal.
Generally, the kinase reaction is carried out at 1 nM IRAK4, 1.6 μM peptide, 1 mM ATP in reaction buffer 50 mM Hepes, 60 mM NaCl, 5 mM MgCl2, 0.25 mM MnCl2, 2 mM DTT, 0.01% BSA, 0.01% Tween-20) for 3.5 h at RT.
The compounds described herein were tested for in the above biochemical assay.
A general note: Alpha assays give light when donor and acceptor beads are brought close together.

Sequence of IRAK4 (Q9NWZ3 whole entry, species assumed): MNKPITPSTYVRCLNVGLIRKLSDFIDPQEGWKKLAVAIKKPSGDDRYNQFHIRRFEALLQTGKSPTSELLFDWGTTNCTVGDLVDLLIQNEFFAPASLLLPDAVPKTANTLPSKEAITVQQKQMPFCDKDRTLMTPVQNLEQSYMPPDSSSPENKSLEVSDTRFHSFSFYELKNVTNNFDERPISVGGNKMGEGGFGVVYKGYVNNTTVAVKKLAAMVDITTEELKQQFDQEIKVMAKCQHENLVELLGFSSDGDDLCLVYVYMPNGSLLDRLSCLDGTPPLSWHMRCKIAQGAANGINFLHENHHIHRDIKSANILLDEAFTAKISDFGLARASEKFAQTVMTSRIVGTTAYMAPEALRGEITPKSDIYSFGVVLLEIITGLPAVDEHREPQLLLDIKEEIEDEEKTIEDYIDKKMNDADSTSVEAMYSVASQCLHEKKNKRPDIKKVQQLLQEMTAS

As to `O=C(Nc1nc2ccccc2n1CCN1CCOCC1)c1cccc([N+](=O)[O-])c1` [IRAK-1/4 inhibitor I], the “lipopolysaccharide-induced secretion of monocyte chemotactic protein-1 (MCP-1)” value in the assay with primary human microglia is recorded as “reduced”. Moreover, the “in vitro uptake of amyloid β (Aβ)” value in the assay with astrocytes and microglia is “not affected”. In the assay on primary human astrocytes, the “interleukin-1β-induced secretion of MCP-1” value is “reduced” and the “interleukin-1β-induced secretion of interleukin 6” value is on record as “reduced”.
Regarding `N[C@H](c1cccc(-c2cc(OCC(F)F)c3cnn(-c4cccc(CO)n4)c3c2)n1)[C@H]1C[C@@H](O)C1` [Compound 24, (1R,3s)-3-((S)-amino(6-(4-(2,2-difluoroethoxy)-1-(6-(hydroxymethyl)pyridin-2-yl)-1H-indazol-6-yl)pyridin-2-yl)methyl)cyclobutanol], the pEC50 in the assay with A549 cells (Homo sapiens, A549, A549 cells) is not below 6.00. The same compound gave a pIC50 against IRAK4 not below 7.00.
In the assay on A549 cells (Homo sapiens, A549, A549 cells), `CCc1cncc(-n2ncc3ccc(-c4cccc([C@@H](N)[C@H]5C[C@@H](O)C5)n4)cc32)n1` [Compound 15, (1R,3s)-3-((S)-amino(6-(1-(6-ethylpyrazin-2-yl)-1H-indazol-6-yl)pyridin-2-yl)methyl)cyclobutanol] gave a pEC50 not below 6.00. The compound also had a pIC50 at IRAK4 not below 7.00.
Take `N[C@@H](c1cccc(-c2ccc3cnn(-c4cccc(CO)n4)c3c2)n1)[C@H]1C[C@@H](O)C1` [Compound 5, (cis)-3-((R)-amino(6-(1-(6-(hydroxymethyl)pyridin-2-yl)-1H-indazol-6-yl)pyridin-2-yl)methyl)cyclobutan-1-ol hydrochloride]: the pEC50 in the assay with A549 cells (Homo sapiens, A549, A549 cells) was not below 6.00. This compound had a pIC50 on IRAK4 not below 7.00.
With `CCOc1cc(-c2cccc([C@@H](N)C3CC(F)(F)C3)n2)cc2c1cnn2-c1cccc(CO)n1` [Compound 34, (S)-(6-(6-(6-(amino(3,3-difluorocyclobutyl)methyl)pyridin-2-yl)-4-ethoxy-1H-indazol-1-yl)pyridin-2-yl)methanol], in the assay on A549 cells (Homo sapiens, A549, A549 cells), the pEC50 was not below 6.00. The pIC50 against IRAK4 is not below 7.00.
The compound `NC(c1cccc(-c2ccc3cnn(-c4cccc(CO)n4)c3c2)n1)C1CCC(O)C1` (single isomer, unassigned) [Compound 23, 3-(amino(6-(1-(6-(hydroxymethyl)pyridin-2-yl)-1H-indazol-6-yl)pyridin-2-yl)methyl)cyclopentanol-C] showed a pEC50 with A549 cells (A549 cells) not below 6.00. On IRAK4, the pIC50 was not below 7.00.
Turning to `CC1(O)CC([C@H](N)c2cccc(-c3ccc4cnn(-c5cccc(CF)n5)c4c3)n2)C1` (stereo partly drawn) [Compound 35i, 3-((S)-amino(6-(1-(6-(fluoromethyl)pyridin-2-yl)-1H-indazol-6-yl)pyridin-2-yl)methyl)-1-methylcyclobutan-1-ol], the pEC50 in the assay on A549 cells (A549 cells) is 5.00 to 6.00. For the same compound, the pIC50 at IRAK4 was 6.00 to 7.00.
The compound `N[C@H](c1cccc(-c2ccc3cnn(-c4nccc(CO)n4)c3c2)n1)[C@H]1C[C@@H](O)C1` [Compound 8, (1R,3S)-3-((S)-amino(6-(1-(4-(hydroxymethyl)pyrimidin-2-yl)-1H-indazol-6-yl)pyridin-2-yl)methyl)cyclobutanol] showed a pEC50 with A549 cells (Homo sapiens, A549, A549 cells) not below 6.00. In addition, the pIC50 on IRAK4 was not below 7.00.
Take `N[C@H](c1cccc(-c2ccc3cnn(-c4cccc(CO)n4)c3c2)n1)C1CC(F)(F)C1` [Compound 26, (S)-(6-(6-(6-(amino(3,3-difluorocyclobutyl)methyl)pyridin-2-yl)-1H-indazol-1-yl)pyridin-2-yl)methanol]: the pEC50 in the assay on A549 cells (Homo sapiens, A549, A549 cells) was not below 6.00. In addition, at IRAK4, the pIC50 was not below 7.00.
In the same order, the values of `N[C@@H](c1cccc(-c2ccc3cnn(-c4cccc(CO)n4)c3c2)n1)C1CC(CO)C1` (stereo partly drawn) [Compound 2, (R)-(6-(6-(6-(amino(3-(hydroxymethyl)cyclobutyl)methyl)pyridin-2-yl)-1H-indazol-1-yl)pyridin-2-yl)methanol] are not below 6.00 and not below 7.00.
In the case of `N[C@H](c1cccc(-c2ccc3cnn(-c4cccc(C(F)(F)F)n4)c3c2)n1)[C@H]1C[C@@H](O)C1` [Compound 10, (1R,3S)-3-((S)-amino(6-(1-(6-(trifluoromethyl)pyridin-2-yl)-1H-indazol-6-yl)pyridin-2-yl)methyl)cyclobutanol], in the assay on A549 cells (Homo sapiens, A549, A549 cells), the pEC50 is not below 6.00. For the same compound, at IRAK4, the pIC50 was not below 7.00.
`N[C@H](c1cccc(-c2ccc3cnn(-c4cccc(C(F)F)n4)c3c2)n1)C1CC(O)C1` (stereo partly drawn) [Compound 35a, 3-((S)-amino(6-(1-(6-(difluoromethyl)pyridin-2-yl)-1H-indazol-6-yl)pyridin-2-yl)methyl)cyclobutan-1-ol] had a pEC50 in the assay on A549 cells (Homo sapiens, A549, A549 cells) not below 6.00. At IRAK4, the pIC50 was not below 7.00.
In the same order, the values of `CC1(O)CC([C@H](N)c2cccc(-c3ccc4cnn(-c5cccc(C(F)F)n5)c4c3)n2)C1` (stereo partly drawn) [Compound 35g, 3-((S)-amino(6-(1-(6-(difluoromethyl)pyridin-2-yl)-1H-indazol-6-yl)pyridin-2-yl)methyl)-1-methylcyclobutan-1-ol] are not below 6.00 and not below 7.00.
The corresponding values for `N[C@H](c1cccc(-c2ccc3cnn(-c4cccc(CF)n4)c3c2)n1)[C@H]1C[C@@H](O)C1` [Compound 16, (1R,3s)-3-((S)-amino(6-(1-(6-(fluoromethyl)pyridin-2-yl)-1H-indazol-6-yl)pyridin-2-yl)methyl)cyclobutanol] are not below 6.00 and not below 7.00.
Compound `N[C@H](c1cccc(-c2ccc3cnn(-c4nccc(CO)n4)c3c2)n1)C1CC(F)(F)C1` [Compound 28, (S)-(2-(6-(6-(amino(3,3-difluorocyclobutyl)methyl)pyridin-2-yl)-1H-indazol-1-yl)pyrimidin-4-yl)methanol] showed a pEC50 with A549 cells (Homo sapiens, A549, A549 cells) not below 6.00. The compound also showed a pIC50 on IRAK4 not below 7.00.
`N[C@H](c1cccc(-c2ccc3cnn(-c4cccc(C(F)F)n4)c3c2)n1)C1CC(F)(F)C1` [Compound 30, (S)-(3,3-difluorocyclobutyl)(6-(1-(6-(difluoromethyl)pyridin-2-yl)-1H-indazol-6-yl)pyridin-2-yl) methanamine] gave a pEC50 in the assay on A549 cells (Homo sapiens, A549, A549 cells) not below 6.00. Besides, on IRAK4, the pIC50 was not below 7.00.
`CCc1cccc(-n2ncc3ccc(-c4cccc([C@@H](N)C5CC(O)C5)n4)cc32)n1` (stereo partly drawn) [Compound 35b, 3-((S)-amino(6-(1-(6-ethylpyridin-2-yl)-1H-indazol-6-yl)pyridin-2-yl)methyl)cyclobutan-1-ol] gave a pEC50 with A549 cells (Homo sapiens, A549, A549 cells) of 5.00 to 6.00. The compound further showed a pIC50 at IRAK4 not below 7.00.
The corresponding values for `N[C@@H](c1cccc(-c2ccc3cnn(-c4cccc(CO)n4)c3c2)n1)C1CC(F)(F)C1` [Compound 27, (R)-(6-(6-(6-(amino(3,3-difluorocyclobutyl)methyl)pyridin-2-yl)-1H-indazol-1-yl)pyridin-2-yl)methanol] are not below 6.00 and not below 7.00.
In the assay with A549 cells (Homo sapiens, A549, A549 cells), `N[C@H](c1cccc(-c2ccc3cnn(-c4cccc(CO)n4)c3c2)n1)[C@H]1C[C@@H](O)C1` [Compound 4, cis-3-((S)-amino(6-(1-(6-(hydroxymethyl)pyridin-2-yl)-1H-indazol-6-yl)pyridin-2-yl)methyl)cyclobutanol] showed a pEC50 not below 6.00. For the same compound, at IRAK4, the pIC50 was not below 7.00.
With `COC1CC([C@H](N)c2cccc(-c3ccc4cnn(-c5cccc(C(F)F)n5)c4c3)n2)C1` (stereo partly drawn) [Compound 35h, (S)-(6-(1-(6-(difluoromethyl)pyridin-2-yl)-1H-indazol-6-yl)pyridin-2-yl)(3-methoxycyclobutyl)methanamine], the pEC50 in the assay with A549 cells (Homo sapiens, A549, A549 cells) was not below 6.00. Also, on IRAK4, the pIC50 is not below 7.00.
`N[C@H](c1cccc(-c2ccc3cnn(-c4cccc(C(F)F)n4)c3c2)n1)[C@H]1C[C@@H](O)C1` [Compound 14, cis-3-((S)-amino(6-(1-(6-(difluoromethyl)pyridin-2-yl)-1H-indazol-6-yl)pyridin-2-yl)methyl)cyclobutanol] gave a pEC50 in the assay with A549 cells (Homo sapiens, A549, A549 cells) not below 6.00. In addition, the negative logarithm of the IC50 (pIC50) at IRAK4 is not below 7.00.
